For this test, the target named is T1, human capsaicin receptor (Homo sapiens, UniProt Q8NER1).
T1 construct: A cDNA encoding full length human capsaicin receptor recited in U.S. Pat. No. 6,482,611 was subcloned in the plasmid pBK-CMV; expressed in transfected cells
Nature of the test: Calcium mobilization assay (Example 6). The class given is cell-based. Particulars: concentration required to provide a 50% decrease in the fluorescence response of cells exposed to one IC50 of capsaicin. The method, boiled down:
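HEK293 clonal lines stably expressing full-length human capsaicin receptor, Fluo-3 AM loaded in KRH buffer pH 7.4. Compounds (final 1-5 μM) preincubated 0.5-6 h at room temperature in the dark, then capsaicin added at its predetermined IC50 concentration. FLIPR calcium signal at 30-60 s; IC50 = antagonist concentration giving 50% decrease.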

T1 sequence (Q8NER1 whole entry): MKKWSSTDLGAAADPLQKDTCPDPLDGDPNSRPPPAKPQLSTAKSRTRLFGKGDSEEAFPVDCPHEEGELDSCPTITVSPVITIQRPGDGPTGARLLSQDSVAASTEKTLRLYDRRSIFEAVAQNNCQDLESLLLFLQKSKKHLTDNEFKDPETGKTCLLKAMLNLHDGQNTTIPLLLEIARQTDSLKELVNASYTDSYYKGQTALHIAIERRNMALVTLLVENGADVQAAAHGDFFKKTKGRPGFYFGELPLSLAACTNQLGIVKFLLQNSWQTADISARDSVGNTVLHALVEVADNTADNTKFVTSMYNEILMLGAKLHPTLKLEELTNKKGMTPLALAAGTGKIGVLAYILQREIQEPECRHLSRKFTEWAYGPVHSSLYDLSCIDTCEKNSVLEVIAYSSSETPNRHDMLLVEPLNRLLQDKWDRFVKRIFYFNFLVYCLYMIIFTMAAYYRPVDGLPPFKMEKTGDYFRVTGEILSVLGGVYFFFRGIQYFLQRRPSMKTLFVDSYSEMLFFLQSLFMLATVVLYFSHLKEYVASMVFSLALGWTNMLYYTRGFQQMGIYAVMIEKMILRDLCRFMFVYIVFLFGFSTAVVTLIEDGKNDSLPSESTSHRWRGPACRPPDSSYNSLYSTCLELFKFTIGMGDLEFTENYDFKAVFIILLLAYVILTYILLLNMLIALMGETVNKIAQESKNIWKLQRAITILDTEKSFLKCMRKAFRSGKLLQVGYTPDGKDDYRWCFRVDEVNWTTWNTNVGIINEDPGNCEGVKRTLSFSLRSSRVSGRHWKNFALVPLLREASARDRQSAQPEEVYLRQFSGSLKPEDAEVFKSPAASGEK

The IC50 is the point on the concentration scale where inhibition reaches its midpoint. On to `FC(F)(F)c1ccc(Nc2cc(N3CCOCC3)nc3nc(-c4ncccc4C(F)(F)F)ccc23)nc1` [Compound 129, 2-morpholin-4-yl-7-[3-(trifluoromethyl)pyridin-2-yl]-N-[5-(trifluoromethyl)pyridin-2-yl]-1,8-naphthyridin-4-amine], for which the IC50 is no more than 1 µM.

Turning to `CC(C)CN(CC(=O)O)Cc1cc(Nc2ccc(C(F)(F)F)cc2)c2ccc(-c3ncccc3C(F)(F)F)nc2n1` [Compound 81, N-isobutyl-N-({4-{[4-(trifluoromethyl)phenyl]amino}-7-[3-(trifluoromethyl)pyridin-2-yl]-1,8-naphthyridin-2-yl}methyl)glycine], the IC50 was no more than 1 µM.

For `Cc1cccnc1-c1ccc2c(Nc3cnc(C(F)(F)F)cn3)ccnc2n1` [Compound 144, 7-(3-methylpyridin-2-yl)-N-[5-(trifluoromethyl)pyrazin-2-yl]-1,8-naphthyridin-4-amine], the IC50 is no more than 1 µM.

With `FC(F)(F)c1cnc(Nc2ccnc3nc(-c4ncccc4C(F)(F)F)ccc23)nc1` [Compound 132, 7-[3-(trifluoromethyl)pyridin-2-yl]-N-[5-(trifluoromethyl)pyrimidin-2-yl]-1,8-naphthyridin-4-amine], the concentration for half-maximal inhibition (IC50) was no more than 1 µM.

Turning to `CC(=O)c1ccc(Nc2ccnc3nc(-c4ncccc4C(F)(F)F)ccc23)nc1` [Compound 141, 1-[6-({7-[3-(trifluoromethyl)pyridin-2-yl]-1,8-naphthyridin-4-yl}amino)pyridin-3-yl]ethanone], the IC50 is no more than 1 µM.

Consider `CC(C)CNCc1cc(Nc2ccc(C(F)(F)F)cc2)c2ccc(-c3ncccc3C(F)(F)F)nc2n1` [Compound 59, 2-[(isobutylamino)methyl]-N-[4-(trifluoromethyl)phenyl]-7-[3-(trifluoromethyl)pyridin-2-yl]-1,8-naphthyridin-4-amine], for which the IC50 was no more than 1 µM.

`OCc1cc(Nc2ccc(C(F)(F)F)cn2)c2ccc(-c3ncccc3C(F)(F)F)nc2n1` [Compound 88, (7-[3-(trifluoromethyl)pyridin-2-yl]-4-{[5-(trifluoromethyl)pyridin-2-yl]amino}-1,8-naphthyridin-2-yl)methanol]: the IC50 was no more than 1 µM.

For `CCOc1cc(Nc2ccc(C(C)C)cc2)c2ccc(-c3ncccc3C(F)(F)F)nc2n1` [Compound 38, 2-ethoxy-N-(4-isopropylphenyl)-7-[3-(trifluoromethyl)pyridin-2-yl]-1,8-naphthyridin-4-amine], the IC50 is no more than 1 µM.

Take `COCc1nc2nc(-c3ncccc3C(F)(F)F)ccc2c(Nc2ccc(C(F)(F)F)cc2)c1C(=O)OC` [Compound 4, methyl 2-(methoxymethyl)-4-{[4-(trifluoromethyl)phenyl]amino}-7-[3-(trifluoromethyl)pyridin-2-yl]-1,8-naphthyridine-3-carboxylate]: the half-inhibitory concentration (IC50) is no more than 1 µM.

On to `FC(F)(F)c1ccc(Nc2ccnc3nc(-c4ncccc4Cl)ccc23)nc1` [Compound 136, 7-(3-chloropyridin-2-yl)-N-[5-(trifluoromethyl)pyridin-2-yl]-1,8-naphthyridin-4-amine], for which the IC50 was no more than 1 µM.

Take `CCCc1cc(Nc2ccc(C(C)(C)O)cn2)c2ccc(-c3ncccc3C(F)(F)F)nc2n1` [Compound 117, 2-[6-({2-propyl-7-[3-(trifluoromethyl)pyridin-2-yl]-1,8-naphthyridin-4-yl}amino)pyridin-3-yl]propan-2-ol]: the 50% inhibitory concentration (IC50) was no more than 1 µM.

Regarding `CC(C)COCc1cc(Nc2ccc(S(=O)(=O)N(C)C)cc2)c2ccc(-c3ncccc3C(F)(F)F)nc2n1` [Compound 68, 4-({2-(isobutoxymethyl)-7-[3-(trifluoromethyl)pyridin-2-yl]-1,8-naphthyridin-4-yl]amino)-N,N-dimethylbenzenesulfonamide], the IC50 is no more than 1 µM.

For `FC(F)(F)c1ccc(Nc2ccnc3nc(-c4ncccc4C(F)(F)F)ccc23)nc1` [Compound 106, 7-[3-(trifluoromethyl)pyridin-2-yl]-N-[5-(trifluoromethyl)pyridin-2-yl]-1,8-naphthyridin-4-amine], the IC50 is no more than 1 µM.

On to `Cc1ccc(Nc2cc(C(C)C)nc3nc(-c4ncccc4C(F)(F)F)ccc23)nc1` [Compound 103, 2-isopropyl-N-(5-methylpyridin-2-yl)-7-[3-(trifluoromethyl)pyridin-2-yl]-1,8-naphthyridin-4-amine], for which the IC50 is no more than 1 µM.

For the compound `CCc1ccc(Nc2ccnc3nc(-c4ncccc4C(F)(F)F)ccc23)nc1` [Compound 143, N-(5-ethylpyridin-2-yl)-7-[3-(trifluoromethyl)pyridin-2-yl]-1,8-naphthyridin-4-amine], the IC50 is no more than 1 µM.

Take `CCN(CCCO)Cc1cc(Nc2ccc(C(F)(F)F)cc2)c2ccc(-c3ncccc3C(F)(F)F)nc2n1` [Compound 77, 3-[ethyl({4-{[4-(trifluoromethyl)phenyl]amino}-7-[3-(trifluoromethyl)pyridin-2-yl]-1,8-naphthyridin-2-yl}methyl)amino]propan-1-ol]: the IC50 is no more than 1 µM.

With `COCc1cc(Nc2ccc(C(C)(C)O)cc2)c2ccc(-c3ncccc3Cl)nc2n1` [Compound 53, 2-(4-{[7-(3-chloropyridin-2-yl)-2-(methoxymethyl)-1,8-naphthyridin-4-yl]amino}phenyl)propan-2-ol], the half-maximal inhibitory concentration (IC50) was no more than 1 µM.

In the case of `FC(F)(F)c1ccc(Nc2ccnc3cc(-c4ncccc4C(F)(F)F)ccc23)nc1` [Compound 109, 7-[3-(trifluoromethyl)pyridin-2-yl]-N-[5-(trifluoromethyl)pyridin-2-yl]quinolin-4-amine], the IC50 is no more than 1 µM.

For the compound `CC(C)(C)c1ccc(Nc2cc(N3CCCC3)nc3cc(-c4ncccc4C(F)(F)F)ccc23)cc1` [Compound 28, N-(4-tert-butylphenyl)-2-pyrrolidin-1-yl-7-[3-(trifluoromethyl)pyridin-2-yl]quinolin-4-amine], the 50% inhibitory concentration (IC50) is no more than 1 µM.

Consider `Oc1cc(Nc2ccc(C(F)(F)F)cc2)c2ccc(-c3ncccc3C(F)(F)F)nc2n1` [Compound 31, 4-{[4-(trifluoromethyl)phenyl]amino}-7-[3-(trifluoromethyl)pyridin-2-yl]-1,8-naphthyridin-2-ol], for which the half-inhibitory concentration (IC50) was no more than 1 µM.

On to `CCc1cc(Nc2ccc(C(C)=O)cn2)c2ccc(-c3ncccc3C(F)(F)F)nc2n1` [Compound 111, 1-[6-({2-ethyl-7-[3-(trifluoromethyl)pyridin-2-yl]-1,8-naphthyridin-4-yl}amino)pyridin-3-yl]ethanone], for which the IC50 was no more than 1 µM.

With `CCS(=O)(=O)N(C)Cc1cc(Nc2ccc(C(F)(F)F)cc2)c2ccc(-c3ncccc3C(F)(F)F)nc2n1` [Compound 71, N-methyl-N-({4-{[4-(trifluoromethyl)phenyl]amino}-7-[3-(trifluoromethyl)pyridin-2-yl]-1,8-naphthyridin-2-yl}methyl)ethanesulfonamide], the IC50 is no more than 1 µM.

For the compound `CCCc1cc(Nc2ccc(C(C)=O)cn2)c2ccc(-c3ncccc3C(F)(F)F)nc2n1` [Compound 115, 1-[6-({2-propyl-7-[3-(trifluoromethyl)pyridin-2-yl]-1,8-naphthyridin-4-yl}amino)pyridin-3-yl]ethanone], the IC50 is no more than 1 µM.

Consider `CCCCNc1cc(Nc2ccc(C(C)(C)C)cc2)c2ccc(-c3ncccc3C(F)(F)F)cc2n1` [Compound 27, N~2~-butyl-N~4~-(4-tert-butylphenyl)-7-[3-(trifluoromethyl)pyridin-2-yl]quinoline-2,4-diamine], for which the IC50 was no more than 1 µM.

`CC(C)(C)c1ccc(Nc2cc(N3CCCCC3)nc3cc(-c4ncccc4C(F)(F)F)ccc23)cc1` [Compound 26, N-(4-tert-butylphenyl)-2-piperidin-1-yl-7-[3-(trifluoromethyl)pyridin-2-yl]quinolin-4-amine]: the IC50 was no more than 1 µM.

As for `CC(C)COCc1cc(Nc2ccc(S(C)(=O)=O)cc2)c2ccc(-c3ncccc3C(F)(F)F)nc2n1` [Compound 65, 2-(isobutoxymethyl)-N-[4-(methylsulfonyl)phenyl]-7-[3-(trifluoromethyl)pyridin-2-yl]-1,8-naphthyridin-4-amine], the IC50 is no more than 1 µM.

Take `COCc1cc(Nc2ccc(S(=O)(=O)C(C)C)cc2)c2ccc(-c3ncccc3C(F)(F)F)nc2n1` [Compound 13, N-[4-(isopropylsulfonyl)phenyl]-2-(methoxymethyl)-7-[3-(trifluoromethyl)pyridin-2-yl]-1,8-naphthyridin-4-amine]: the half-inhibitory concentration (IC50) was no more than 1 µM.

Take `CCCOc1cc(Nc2ccc(C(C)(C)C)cc2)c2ccc(-c3ncccc3C(F)(F)F)cc2n1` [Compound 33, N-(4-tert-butylphenyl)-2-propoxy-7-[3-(trifluoromethyl)pyridin-2-yl]quinolin-4-amine]: the IC50 is no more than 1 µM.

As for `CC(C)COCc1cc(Nc2ccc(S(=O)(=O)C(F)(F)F)cc2)c2ccc(-c3ncccc3C(F)(F)F)nc2n1` [Compound 74, 2-(isobutoxymethyl)-7-[3-(trifluoromethyl)pyridin-2-yl]-N-{4-[(trifluoromethyl)sulfonyl]phenyl}-1,8-naphthyridin-4-amine], the concentration for half-maximal inhibition (IC50) was no more than 1 µM.

Consider `CC(C)c1cc(Nc2ccc(C(F)(F)F)cn2)c2ccc(-c3ncccc3C(F)(F)F)nc2n1` [Compound 102, 2-isopropyl-7-[3-(trifluoromethyl)pyridin-2-yl]-N-[5-(trifluoromethyl)pyridin-2-yl]-1,8-naphthyridin-4-amine], for which the half-maximal inhibitory concentration (IC50) was no more than 1 µM.

For `Cc1ccc(Nc2ccnc3nc(-c4ncccc4C(F)(F)F)ccc23)nc1` [Compound 140, N-(5-methylpyridin-2-yl)-7-[3-(trifluoromethyl)pyridin-2-yl]-1,8-naphthyridin-4-amine], the IC50 is no more than 1 µM.

As for `CC(C)COCc1cc(Nc2ccc(C#N)cn2)c2ccc(-c3ncccc3C(F)(F)F)nc2n1` [Compound 87, 6-({2-(isobutoxymethyl)-7-[3-(trifluoromethyl)pyridin-2-yl]-1,8-naphthyridin-4-yl}amino)nicotinonitrile], the IC50 was no more than 1 µM.
